pIC50: −log10 of the molar value.

Results on five molecules are retold here after patent US7018796B2, “Preincubation assay methods” (Shionogi & Co., Ltd., priority 2000, dated 2006).

Assay [1] deals with T1, HCV RNA-dependent RNA polymerase (Hepatitis C virus genotype 1a, UniProt P27958).
T1 construct: HCV RNA-dependent RNA polymerase is encoded in the NS5B (nonstructural protein 5B) region of HCV; made in house; host or cells: insect cells or E. coli
The assay is described as follows: DIG-UTP assay without radioisotope-labeled substrate, without pre-incubation (Example 2). It counts as biochemical. The following applies: no pre-incubation, I-1 0.5 μg/ml, 3′-dUTP 0.7 μM, A 100 μg/ml, B 50 μg/ml, C 25 μg/ml. The protocol: After mixing by a plate mixer, the solution was pre-incubated at 25° C. for 1 hr. • 10) On the other hand, the buffer I (10 μl) was transferred into another tube, and UTP (1 μM, 10 μl), DIG-UTP (300 μM, 1 μl), water (24 μl) and a test compound dissolved with dimethyl sulfoxide or water (5 μl) were added to the tube and mixed calmly. Concentrations of the compounds used were as follows.
• 11) The mixed solution (50 μl/well) described in 10) was transferred into each well after the pre-incubation described in 9), mixed by a plate mixer and then incubated at 25° C. for 1 hr. • 12) When the enzyme reaction was in 1 hr, the enzyme reaction was stopped by adding ethylenediaminetetraacetic acid (0.1 M, 50 μl/well). • 13) The plate was washed twice with PBS (200 μl/well) after end of the enzyme reaction. • 14) Next, alkaline phosphatase-labeled anti-DIG antibody (3 U/ml, 100 μl/well) diluted 250-fold with PBS containing skim milk (0.5%) was transferred each well. After mixing by a plate mixer, immuno-reaction was performed at 25° C. for 1 hr. • 15) Each well was washed twice with PBS (200 μl/well) containing skim milk (0.05%) and then washed twice with PBS (200 μl/well). • 16) Substrate solution (150 μl/well) for alkaline phosphatase was prepared by mixing of Tris-HCl (100 mM, pH 9.5), NaCl (100 mM), MgCl2 (5 mM) and p-nitrophenyl phosphate (6 mM) just before use. The substrate solution was transferred into each well of the plate, mixed by a plate mixer and then incubated at 25° C. for 1 hr until the color appears in the solution. • 17) The plate was set on a plate reader and the absorbance was measured at 405 nm. • 18) The inhibitory rate was calculated from the optical density (unit; OD) measured as follows. [formula]
Table 4 summarized the comparison between inhibitory rates in the assay with the pre-incubation and those in the assay without the pre-incubation.

Assay [2] addresses T1, HCV RNA-dependent RNA polymerase. The assay can be described thus: Pre-incubation assay method with 3H-UTP (Example 1). It counts as biochemical. The protocol:
A HCV RNA-dependent RNA polymerase, template RNA, primer RNA and Mg ion (Mg^2+) are pre-incubated at approximately 25° C. for approximately 1 hour. After that, substrate RNA and a test substance are added to start an enzyme reaction and measure an enzyme activity. IC50 value can be calculated by comparing with an enzyme activity measured in the absence of a test substance as well as the above prior method. An inhibitor can be selected by comparing IC50. An example of a procedure of this method is shown in the later described Example 1.
A cDNA encoding HCV RNA-dependent RNA polymerase was made by use of HCV positive human plasma and HCV RNA-dependent RNA polymerase was expressed using the insect cells or the E. coli. HCV RNA-dependent RNA polymerase in the cell extract was purified by use of an anion exchange chromatography, a heparin affinity chromatography, a polyU affinity chromatography, a cation exchange chromatography and gel filtration chromatography. The purification was performed at 4° C. and Tris buffer (pH 7.5) containing ethylenediaminetetraacetic acid (1 mM), dithiothreitol (10 mM) and glycerol (20%) was used. The enzyme purified was stored at 4° C. until use for the assays.
• 1) The buffer I ^1) (10.5 μl) containing Tris-HCl (100 mM, pH 7.5), MgCl2 (25 mM), dithiothreitol (5 mM), KCl (125 mM) and ethylenediaminetetraacetic acid (5 mM) was transferred to a polypropylene tube and then poly(A)^2) solution (100 μg/ml, 10.5 μl), oligo(U)12 ^3) solution (1 μg/ml, 10.5 μl) and water (8 μl) were added into the tube and mixed. • 2) Next, HCV RNA-dependent RNA polymerase (10.5 μl) was added into the tube and pre-incubated at 25° C. for […]. • 3) The enzyme solution pre-incubated (50 μl) was added to a test compound (5.26 μl/well) dissolved with dimethyl sulfoxide or water in a well of a 96-wells microtiter plate. • 4) Additionally, the buffer II (10.6 μl) containing Tris-HCl (100 mM, pH 7.5), MgCl2 (25 mM), dithiothreitol (5 mM), KCl (125 mM), ethylenediaminetetraacetic acid (5 mM) and UTP • 4) (2.1 μM, 1 μCi ^3H-UTP), was mixed with water (39.4 μl). The mixture (50 μl) was added into the well and mix, and then the enzyme reaction was performed at 25° C. for 30 min. • 5) After enzyme reaction for 30 min, the enzyme reaction was stopped by adding disodium ethylenediaminetetraacetic acid (50 mM, 50 μl). • 6) By use of the cell-harvester, all volume of the enzyme reaction sample was transferred onto a filtermat bound with diethylaminoethyl base (referred to as DEAE-filtermat) and washed twice for 10 sec with sodium phosphate buffer (0.25 M, pH 7.0) and once for 10 sec with de-ionized water. • 7) The DEAE-filtermat was dried at 95° C. for 15 min and transferred into a sample bag with liquid scintillater (10 ml), and then a sample bag was sealed. • 8) The radio activity was measured by a scintillation counter. • 9) The inhibitory rate was calculated from the radioactivity measured (ccpm) as follows. [formula]
The concentration of compound at 50% inhibition (IC50 value) was calculated from the compound concentration used and the inhibitory rate calculated.
When use of a compound at a μg/ml results in A % inhibition and use of a compound at β μg/ml results in B % inhibition on condition of A≧50>B the IC50 value is obtained by the calculation as follows. IC50 (μg/ml)=10^[(50−B)/(A−B)×(log^α^−log^β^)+log^β^]

Setting [3] is: with pre-incubation, I-1 0.5 μg/ml, 3′-dUTP 0.7 μM, A 100 μg/ml, B 50 μg/ml, C 25 μg/ml.

T1 sequence (P27958 2421-3011): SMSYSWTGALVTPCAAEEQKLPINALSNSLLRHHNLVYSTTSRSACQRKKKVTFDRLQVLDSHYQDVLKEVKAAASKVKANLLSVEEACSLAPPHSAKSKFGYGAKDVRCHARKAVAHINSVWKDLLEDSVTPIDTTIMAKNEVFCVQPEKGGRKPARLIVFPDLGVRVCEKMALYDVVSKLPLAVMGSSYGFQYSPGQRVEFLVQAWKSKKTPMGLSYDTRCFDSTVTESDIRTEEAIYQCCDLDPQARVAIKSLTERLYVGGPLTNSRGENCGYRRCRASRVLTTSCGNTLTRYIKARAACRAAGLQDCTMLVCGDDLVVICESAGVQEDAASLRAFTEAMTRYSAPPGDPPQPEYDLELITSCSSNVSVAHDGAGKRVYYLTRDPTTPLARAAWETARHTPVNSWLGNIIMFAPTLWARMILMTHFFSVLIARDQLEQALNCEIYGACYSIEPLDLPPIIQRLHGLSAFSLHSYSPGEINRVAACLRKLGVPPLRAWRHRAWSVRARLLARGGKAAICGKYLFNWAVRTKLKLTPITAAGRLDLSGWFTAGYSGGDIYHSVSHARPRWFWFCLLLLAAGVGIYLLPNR

As to `O=c1ccn([C@@H]2O[C@H](COP(=O)(O)OP(=O)(O)OP(=O)(O)O)C[C@H]2O)c(=O)[nH]1` [3′-dUTP, 3′-deoxyuridine triphosphate], the “Inhibitory rate, treatment of pre-incubation −” value (“Inhibitory rate, treatment” below) in assay [1] is 44%. The “Inhibitory rate (Table 2)” value in assay [2] (setting [3]) came to 79%. Besides, the “Enzyme inhibition rate in a pre-incubation assay method (FIG. 5)” value in assay [2] (with pre-incubation, same concentrations as) is recorded as “does not change”.
Turning to `Cc1oc(-c2ccccc2)nc1CCOc1ccc(C=C2C(=O)NC(=O)NC2=O)cc1` [Compound A], the “Inhibitory rate, treatment” value in assay [1] came out at 87%. In assay [2] (with pre-incubation), the “Judgement in the pre-incubation method (positive / negative)” value (from here on “Judgement … (positive / negative)”) is given as “negative”. Also, the “Inhibitory rate (Table 2)” value in assay [2] (setting [3]) came out at 19%.
Take `O=C1NC(=O)C(=Cc2ccc(OCCc3cccc4ccccc34)cc2)C(=O)N1` [Compound B]: in assay [1], the “Inhibitory rate, treatment” value is reported as 28%. In assay [2] (with pre-incubation), the “Judgement … (positive / negative)” value is on record as “negative”. Further, the “Inhibitory rate (Table 2)” value in assay [2] (setting [3]) came out at 1%.
The corresponding values for `CCCCC1=N/C(=C\c2ccccc2OCC(=O)O)C(=O)N1Cc1ccc(-c2ccccc2-c2nnn[nH]2)cc1` [Compound C] are 87%, “negative result” and 2%.
With `O=C(O)/C(O)=C/C(=O)c1cccc(O)c1` [Compound I-1], the inhibition at 0.5 µg/mL in assay [1] (read-out: Inhibitory rate, treatment of pre-incubation −) came out at 59%; in assay [2] (with pre-incubation, I-1 0.5 μg/ml, 3′-dUTP 0.7 μM, A 100 μg/ml, B 50 μg/ml, C 25 μg/ml, read-out: Inhibitory rate (Table 2)) it was 62%. Moreover, the inhibition at 100 µg/mL in assay [2] (100 μg/ml, pre-incubation 25° C. 60 min, method of Example 1, read-out: Inhibition rate at a concentration of 100 μg/ml) is greater than 99%. In addition, the pIC50 (commonly the negative decadic logarithm of the IC50, by convention in mol/L) in assay [2] (pre-incubation 25° C. 60 min, method of Example 1) was 5.72. Also, in assay [2] (with pre-incubation), the “Judgement … (positive / negative)” value was “positive result”.
